PubChem BioAssay (NCI)
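Test compounds were applied to cells in 96-well plates for 48 hours at 5 doses. Here, GI50 denotes the concentration required for 50% inhibition of growth. The concentration for full growth arrest is given as TGI.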

Legend:
Assay in all cases: DTP human tumour cell line panel, 48 h
[1] = system: M14 melanoma
[2] = system: HL-60(TB) leukemia
[3] = system: M19-MEL melanoma
[4] = system: SNB-75 CNS
[5] = system: HOP-18 NSCLC
[6] = system: DLD-1 colon
[7] = system: DMS 273 small cell lung
[8] = system: SNB-78 CNS
[9] = system: DU-145 prostate
[10] = system: BT-549 breast
[11] = system: MCF7 breast
[12] = system: T-47D breast

Compound | GI50 [1] [µM] | TGI [1] [µM] | GI50 [2] [µM] | TGI [2] [µM] | GI50 [3] [µM] | TGI [3] [µM] | GI50 [4] [µM] | TGI [4] [µM] | TGI [5] [µM] | TGI [6] [µM] | TGI [7] [µM] | TGI [8] [µM] | TGI [9] [µM] | TGI [10] [µM] | TGI [11] [µM] | TGI [12] [µM] | GI50 [9] [µM] | GI50 [10] [µM] | GI50 [11] [µM] | GI50 [12] [µM]
CC(=O)[CH-]C(=O)c1ccccc1.CC(=O)[CH-]C(=O)c1ccccc1.CCOCC[O-].CCOCC[O-].[Ti+4] | 16.7 | 37.1 | 13.8 | 45.4 | 18.9 | 43.4 | 16.6 | 43.8 |  |  |  |  |  |  |  |  |  |  |  | 
C=C[C@@]1(O)CCCC2=C(C(=O)OCC)CC[C@]21C |  | > 100 |  | > 100 |  | > 100 |  |  | > 100 | > 100 | > 100 |  |  |  |  |  |  |  |  | 
O=c1c2cccc3cccc(c4n1CCN=4)c32 |  | > 100 |  | > 100 |  | > 100 |  | > 100 | > 100 | > 100 | > 100 | > 100 |  |  |  |  |  |  |  | 
COC(C(=O)NCCCCNC(=O)C(OC)c1ccccc1)c1ccccc1 (stereo unspecified) |  | > 100 |  | > 100 |  | > 100 |  | > 100 | > 100 | > 100 | > 100 | > 100 |  |  |  |  |  |  |  | 
FC(F)(F)C1(Br)C(c2ccccc2)=C1c1ccccc1 |  | 35 |  | > 100 |  | 30 |  | 88.6 | 31.1 | 43 | 36.3 | 96.6 |  |  |  |  |  |  |  | 
CC(C)(C)C(=O)OCC1CCC(n2cnc3c(=O)[nH]c(N)nc32)O1 (stereo unspecified) |  | > 100 |  |  |  | > 100 |  | > 100 | > 100 |  | > 100 | > 100 |  |  |  |  |  |  |  | 
O=c1[nH]c2cc(Cl)ccc2nc1/C(=N\O)C(O)c1ccc([N+](=O)[O-])cc1 (stereo unspecified) |  | > 100 |  | > 100 |  | > 100 |  | > 100 |  | > 100 | > 100 |  |  |  |  |  |  |  |  | 
CC1=NN(C(=O)c2ccc([N+](=O)[O-])cc2)C(=O)C1N=Nc1ccccc1C(=O)O (stereo unspecified) |  |  |  | > 100 |  | > 100 |  | > 100 |  | > 100 | > 100 | > 100 |  |  |  |  |  |  |  | 
C/C=C/CC(C)[C@@H](O)[C@H](NC)C(=O)O (stereo partly specified) |  | > 100 |  | > 100 |  | > 100 |  | > 100 | > 100 | > 100 | > 100 |  |  |  |  |  |  |  |  | 
Cc1cc(N(CCC#N)S(C)(=O)=O)ccc1C=Nc1ccc(C(=O)NN2C(=O)/C(=C/c3ccc(N(CCC#N)CCC#N)cc3C)N=C2c2cc([N+](=O)[O-])ccc2Cl)cc1 |  | > 100 |  | > 100 |  | > 100 |  | > 100 | > 100 | > 100 | > 100 | > 100 |  |  |  |  |  |  |  | 
Cc1cc(=O)oc2c(C)c(OCCCOc3ccc4c(C)cc(=O)oc4c3C)ccc12 |  | > 100 |  | > 100 |  | > 100 |  |  | > 100 | > 100 | > 100 | > 100 |  |  |  |  |  |  |  | 
CC1(C)C2CC(=O)C1(C)C(OCc1ccccc1)C2 (stereo unspecified) |  | 71.3 |  | 62.3 |  |  |  | > 100 |  |  |  |  | > 100 | > 100 | > 100 | > 100 |  |  |  | 
O=C(/C=C/c1ccccc1)n1c(-c2ccc(Cl)cc2)nc2ccccc21 | 1.91 | 5.05 | 1.4 | 4.88 |  |  | 1.44 | 3.77 |  |  |  |  | 4.93 | 3.22 | 9.92 | 7.68 | 1.8 | 1.67 | 1.01 | 1.73
CC/C(CC(=O)CCC(=O)Nc1ccccc1[N+](=O)[O-])=N/NC(=O)C[n+]1ccccc1 |  | > 100 |  | > 100 |  | > 100 |  | > 100 | > 100 |  | > 100 | > 100 |  |  |  |  |  |  |  | 
Cc1nc(N2CCC3(CC2)CO[C@@H](C)[C@H]3N)c(CO)nc1Sc1ccnc(N)c1Cl | > 100 | > 100 | > 100 | > 100 |  |  | 0.518 | > 100 |  |  |  |  | > 100 | > 100 | > 100 | > 100 | 45.3 | 6.56 | > 92.4 | 32.4
CCc1cccc(CC)c1NC(=O)C1=C(C)NC(C)=C(C(=O)Nc2c(CC)cccc2CC)C1c1ccc([N+](=O)[O-])cc1 |  | 42.5 |  | 48.7 |  | 69.2 |  | > 100 |  | > 100 |  |  |  |  |  |  |  |  |  | 
COc1ccc(C(=O)c2cc3c(N)c(C(=O)Nc4ccc(C)cc4)sc3nc2C)cc1 | 1.99 | 62.9 | 2.78 | 10.3 |  |  | 0.571 | 5.99 |  |  |  |  | 27.4 | 41.8 | > 100 | 91.7 | 3.63 | 4.83 | 1.43 | 4.78
COc1cc(CNC2c3cc4c(cc3C(c3cc(OC)c(OC)c(OC)c3)[C@H]3C(=O)OCC23)OCO4)cc(OC)c1OC (stereo partly specified) |  | > 100 |  | 0.515 |  | > 100 |  | > 100 | > 100 | > 100 |  |  |  |  |  |  |  |  |  | 
Cc1ccc(C)c(C2NC(=O)c3ccccc3N2)c1 (stereo unspecified) |  | 26.1 |  | 0.56 |  |  |  | 15.2 |  |  |  |  | > 50.9 | > 71.6 | > 84.5 | > 100 |  |  |  | 
O=C(Nc1cccc(O)c1)C(=O)C(C(=O)c1ccc(Cl)c(Cl)c1)C1OC(=O)c2ccccc21 (stereo unspecified) |  | 37.1 |  | 36.5 |  | 27.1 |  | 71.4 | > 100 |  | 39.5 | > 100 |  |  |  |  |  |  |  | 
CN1C(=O)N[C@H]2[C@@H]3NC(=O)c4ccc(Br)n4[C@@H]3C[C@]21O | 0.0454 | 0.236 | 0.0324 | 0.132 |  |  | 0.106 | 0.969 |  |  |  |  | 2.8 | 0.405 | 1.08 | 0.23 | 0.121 | 0.0739 | 0.0281 | 0.0313
O=[N+]([O-])C1Cc2ccccc2OC1c1ccccc1 (stereo unspecified) |  | > 100 |  | > 100 |  | > 100 |  | 55.5 | > 100 | > 100 | > 100 | 51.5 |  |  |  |  |  |  |  | 
O=C1OC(O)C(Oc2c(Cl)cccc2Cl)=C1Cl (stereo unspecified) |  | 33.2 |  | 50.1 |  |  |  | 54.6 | 42.4 | 32.1 | 30.1 | 94.6 |  |  |  |  |  |  |  | 
CN(C)c1nc(=Nc2cccc(Cl)c2)ss1 |  | 28.4 |  | 23 |  | 32.6 |  | 66.3 | > 100 | 24.8 | 29.9 | 34 |  |  |  |  |  |  |  | 
